The target in assay [1] is T1, PDE4B: catalytic domain of human PDE4B from S152-S528 (Homo sapiens, UniProt Q07343).
T1 construct: The catalytic domain of human PDE4B from S152-S528; His6 (N, cleaved yes); thrombin cleavage site (N, cleaved yes); made in house; host or cells: E. coli BL21 (DE3) RIL
In words: PDE4 IC50 determination by Scintillation Proximity Assay (SPA), PDE4B catalytic domain. Type of assay: biochemical. The conditions noted are these: [3H]cAMP SPA, 30 min at 30° C. A digest of the protocol:
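Human PDE4B catalytic domain (80 ng/ml) hydrolysed [3H]cAMP in 50 mM Tris pH 7.5, 8.3 mM MgCl, 1.7 mM EGTA, 0.01% BSA for 30 min at 30 °C. Reaction was stopped with yttrium silicate SPA beads in 18 mM ZnSO4, and bound [3H]AMP was counted by scintillation. IC50 came from non-linear regression.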
In general terms: In a scintillation proximity assay essentially only radioactivity close to the scintillant gives light.

For assay [2], the target named is T2, PDE4D5: full-length human PDE4D5 isozyme (Homo sapiens, UniProt Q08499).
T2 construct: made in house; host or cells: baculovirus infected insect cells (pFastBacHT)
T2 sequence (Q08499 with tags, fused parts or gaps isoform Q08499-6): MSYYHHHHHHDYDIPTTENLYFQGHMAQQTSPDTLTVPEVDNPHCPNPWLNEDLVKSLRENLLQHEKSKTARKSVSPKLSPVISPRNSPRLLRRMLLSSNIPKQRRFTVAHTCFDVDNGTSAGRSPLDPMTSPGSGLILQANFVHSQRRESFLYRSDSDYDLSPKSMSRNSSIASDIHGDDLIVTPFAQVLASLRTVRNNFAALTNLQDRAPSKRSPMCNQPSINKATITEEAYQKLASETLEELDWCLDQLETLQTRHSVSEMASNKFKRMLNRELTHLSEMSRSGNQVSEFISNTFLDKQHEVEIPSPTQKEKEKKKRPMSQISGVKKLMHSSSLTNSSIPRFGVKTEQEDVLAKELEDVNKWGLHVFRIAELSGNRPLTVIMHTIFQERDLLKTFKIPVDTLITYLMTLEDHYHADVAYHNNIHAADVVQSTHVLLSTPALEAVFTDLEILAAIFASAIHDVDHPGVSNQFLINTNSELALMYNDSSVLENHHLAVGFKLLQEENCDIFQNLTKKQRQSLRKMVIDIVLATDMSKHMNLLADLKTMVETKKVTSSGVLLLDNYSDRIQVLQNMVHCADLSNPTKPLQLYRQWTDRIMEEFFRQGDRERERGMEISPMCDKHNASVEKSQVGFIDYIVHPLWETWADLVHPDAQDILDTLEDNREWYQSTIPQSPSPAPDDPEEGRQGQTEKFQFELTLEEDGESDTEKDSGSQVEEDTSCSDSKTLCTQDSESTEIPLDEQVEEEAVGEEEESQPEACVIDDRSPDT
In words: PDE4 IC50 determination by Scintillation Proximity Assay (SPA), full-length PDE4D5. Type of assay: biochemical. As to conditions: cell lysate, [3H]cAMP SPA. A digest of the protocol:
(§1)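 Unpurified enzyme from cell lysates (PDE4B2 2.5 μl, PDE4D5 0.083 μl of 50% glycerol stock/ml) hydrolysing [3H]cAMP in 50 mM Tris pH 7.5, 8.3 mM MgCl, 1.7 mM EGTA, 0.01% BSA, 30 min at 30 °C. Stopped with yttrium silicate SPA beads in 18 mM ZnSO4; bead-bound [3H]AMP counted. IC50 by non-linear regression.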

For assay [3], the target named is T3, PDE4B2: full-length human PDE4B2 isozyme (Homo sapiens, UniProt Q07343).
T3 construct: made in house; host or cells: baculovirus infected insect cells (pFastBacHT)
T3 sequence (Q07343 with tags, fused parts or gaps isoform Q07343-2): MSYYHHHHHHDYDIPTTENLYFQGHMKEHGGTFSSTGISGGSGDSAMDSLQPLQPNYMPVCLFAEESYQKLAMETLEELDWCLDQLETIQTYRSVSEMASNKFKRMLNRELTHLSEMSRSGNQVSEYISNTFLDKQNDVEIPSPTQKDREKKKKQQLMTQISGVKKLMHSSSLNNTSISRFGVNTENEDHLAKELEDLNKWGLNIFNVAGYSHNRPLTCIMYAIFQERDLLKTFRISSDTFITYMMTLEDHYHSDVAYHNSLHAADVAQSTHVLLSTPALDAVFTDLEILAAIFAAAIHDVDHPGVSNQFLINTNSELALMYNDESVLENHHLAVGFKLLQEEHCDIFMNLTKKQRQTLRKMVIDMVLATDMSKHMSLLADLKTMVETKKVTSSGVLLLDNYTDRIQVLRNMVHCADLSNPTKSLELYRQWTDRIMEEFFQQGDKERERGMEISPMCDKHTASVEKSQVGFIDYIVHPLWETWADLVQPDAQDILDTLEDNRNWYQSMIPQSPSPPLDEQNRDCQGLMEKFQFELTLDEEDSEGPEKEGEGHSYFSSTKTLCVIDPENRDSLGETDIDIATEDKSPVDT
As to the kind of experiment: PDE4 IC50 determination by Scintillation Proximity Assay (SPA), full-length PDE4B2. Type of assay: biochemical. The conditions noted are these: cell lysate, [3H]cAMP SPA. A digest of the protocol: as §1

In assay [4] the test system is TNF-α release from whole blood cultures stimulated with LPS. In words: IC50 by TNF alpha production upon stimulation of whole blood cultures with LPS. The conditions noted are these: human whole blood (buffy coat) culture, 100 ng/ml LPS, 4 hours; read-out: h TNFα IC50. Type of assay: cell-based. Here is the method:
Compounds were assayed to generate IC50 numbers based on the inhibition of TNF-α release from whole blood cultures, using the following assay protocol (see Table 5 for compounds tested and results). Inhibition of PDE4B results in the inhibition of TNF-α release by whole blood cultures stimulated with lipopolysaccharide (LPS). The measurement of TNF-α release was used to assess compounds as PDE4B inhibitors.
Compounds were provided in DMSO at 20 mM and 2 μl per well was added to one row of a dilution plate. Added 98 μl of RPMI 1640 media with 2.5% heat inactivated FBS to each well containing compound. The same media with 2% DMSO was prepared and 60 μl was added to each of the empty wells in the dilution plate. The compound was serially diluted 1:3 (30 μl to 60 μl of media) for a total of 8 concentrations per compound. Wells were also prepared with 50 μM roflumilast and piclamilast as 100% inhibition controls, and 2% DMSO in media was used as 0% inhibition control. A 20 μl aliquot of each sample was transferred to an assay plate in duplicate.
Human buffy coat was obtained from the Stanford Medical School Blood Center and diluted with 7 volumes of RPMI 1640 media with 1% penicillin/streptomycin and 2.5% heat inactivated FBS. A 160 μl aliquot of the diluted blood was added to each well of the assay plates, mixed and incubated for 1 hour at 37° C. in 5% CO2. LPS (Sigma catalog number L2637) that had been diluted to 1 mg/ml in PBS and stored as 20 μl aliquots at −20° C. was thawed and diluted 1000× to 1 μg/ml. A 20 μl aliquot of this was added to each sample (final concentration 100 ng/ml LPS) after the 1 hour incubation. A background sample was prepared without addition of LPS as well. The samples were mixed on a shaker for one minute at 900 RPM and incubated for 4 hours at 37° C. in 5% CO2. The plates were then put on a shaker for one minute at 900 RPM, followed by centrifuging at 100×g for 10 minutes, deceleration setting of 5. The top 75 μl of supernatant was carefully pipetted to a new plate and frozen at −20° C.
A 50 μl aliquot of incubation buffer (Biosource International Immunoassay Kit:Human TNF-α catalog number KHC3011) was added to each well of a plate coated with monoclonal antibody specific for hTNF-α (Biosource kit). The supernatant blood samples were thawed and a 50 μl aliquot along with 50 μl of diluent buffer (Biosource kit) were added to incubation buffer and the samples were incubated for 2 hours at room temperature. The samples were washed 4 times with 300 μl/well wash buffer (Biosource kit). A 100 μl aliquot of biotinylated anti-TNFalpha (Biosource kit) was added and the samples incubated for 1 hour at room temperature. The samples were washed 4 times with 300 μl/well wash buffer. A 100 μl aliquot of Streptavidin-HRP solution (BioSource kit) was added and the samples incubated for 30 minutes at room temperature. The samples were washed 4 times with 300 μl/well wash buffer. A 100 μl aliquot of Chromagen (Biosource kit) was added and the samples incubated in the dark for 30 minutes. A 100 μl aliquot of stop solution (2N H2SO4) was added to each sample and samples were read at 450 nm on a WallacVictor for 0.1 sec/well.

T1 sequence (Q07343 324-700): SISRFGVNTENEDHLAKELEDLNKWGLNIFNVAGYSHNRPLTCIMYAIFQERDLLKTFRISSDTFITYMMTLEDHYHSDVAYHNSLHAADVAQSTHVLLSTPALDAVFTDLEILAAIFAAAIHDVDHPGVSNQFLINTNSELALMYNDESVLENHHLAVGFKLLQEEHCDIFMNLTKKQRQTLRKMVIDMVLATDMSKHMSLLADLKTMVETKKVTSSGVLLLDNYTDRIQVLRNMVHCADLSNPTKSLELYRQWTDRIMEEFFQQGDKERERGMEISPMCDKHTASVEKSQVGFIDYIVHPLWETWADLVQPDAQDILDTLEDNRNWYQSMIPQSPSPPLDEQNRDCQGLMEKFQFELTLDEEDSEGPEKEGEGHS

On to `COc1ccc(-c2cn(C(=O)Nc3cccc([N+](=O)[O-])c3)c3ncccc23)cc1OC` [Compound 38, 3-(3,4-Dimethoxy-phenyl)-pyrrolo[2,3-b]pyridine-1-carboxylic acid (3-nitro-phenyl)-amide], for which the half-maximal inhibitory concentration (IC50) was less than 10 µM in assay [1], more than 10 µM in assay [2], less than 10 µM in assay [3] and more than 10 µM in assay [4].

With `COc1ccc(-c2cn(C(=S)Nc3ccccc3)c3ncccc23)cc1OC` [Compound 41, 3-(3,4-dimethoxy-phenyl)-pyrrolo[2,3-b]pyridine-1-carbothioic acid phenylamide], the IC50 in assay [1] is less than 10 µM; in assay [2], less than 10 µM; in assay [3], less than 10 µM; in assay [4] it was not above 10 µM.

Take `COc1ncc(-c2cn(S(=O)(=O)c3cccc4cccnc34)c3ncccc23)cn1` [Compound 43, 8-[3-(2-methoxy-pyrimidin-5-yl)-pyrrolo[2,3-b]pyridine-1-sulfonyl]-quinoline]: the IC50 in assay [1] was less than 10 µM; in assay [2], less than 10 µM; in assay [3], less than 10 µM; in assay [4], not above 10 µM.

For the compound `CCOc1ccccc1C(=O)n1ccc2c(-c3ccc(OC)c(OC)c3)ccnc21` [Compound 51, [4-(3,4-Dimethoxy-phenyl)-pyrrolo[2,3-b]pyridin-1-yl]-(2-ethoxy-phenyl)-methanone], the IC50 in assay [1] was less than 10 µM; in assay [2], less than 10 µM; in assay [3], less than 10 µM; in assay [4] it was more than 10 µM.

On to `CCOc1cc([N+](=O)[O-])ccc1C(=O)n1cc(-c2ccc(OC)c(OC)c2)c2cccnc21` [Compound 54, [3-(3,4-Dimethoxy-phenyl)-pyrrolo[2,3-b]pyridin-1-yl]-(2-ethoxy-4-nitro-phenyl)-methanone], for which the IC50 in assay [1] is less than 10 µM; in assay [2], less than 10 µM; in assay [3], less than 10 µM; in assay [4] it was more than 10 µM.

On to `COc1ccc(-c2cn(C(=O)c3ccccc3)c3ncccc23)cc1OC` [Compound 55, [3-(3,4-Dimethoxy-phenyl)-pyrrolo[2,3-b]pyridin-1-yl]phenylmethanone-amide], for which the IC50 in assay [1] was less than 10 µM; in assay [2], less than 10 µM; in assay [3], less than 10 µM; in assay [4] it was not above 10 µM.

For the compound `COc1ccc(-c2cn(C(=O)c3cnccc3C(F)(F)F)c3ncccc23)cc1OC` [Compound 57, [3-(3,4-Dimethoxy-phenyl)-pyrrolo[2,3-b]pyridin-1-yl]-(4-trifluoromethypyridn-3-yl)-methanone-amide], the IC50 in assay [1] is less than 10 µM; in assay [2] it was less than 10 µM; in assay [3] it was less than 10 µM; in assay [4], more than 10 µM.

For the compound `COc1ccc(-c2cn(C(=O)c3cccc4ccccc34)c3ncccc23)cc1OC` [Compound 58, [3-(3,4-Dimethoxy-phenyl)-pyrrolo[2,3-b]pyridin-1-yl]-(1-naphthyl)-methanone-amide], the IC50 in assay [1] was less than 10 µM; in assay [2] it was less than 10 µM; in assay [3], less than 10 µM; in assay [4] it was not above 10 µM.

Turning to `COc1ccc(-c2cn(C(=O)c3cccnc3Cl)c3ncccc23)cc1OC` [Compound 59, [3-(3,4-Dimethoxy-phenyl)-pyrrolo[2,3-b]pyridin-1-yl]-(2-chloropyridin-3-yl)-methanone-amide], the IC50 was less than 10 µM in assay [1], less than 10 µM in assay [2], less than 10 µM in assay [3] and not above 10 µM in assay [4].

Take `COc1ccc(-c2cn(C(C)=O)c3ncccc23)cc1OC` [Compound 67, 1-[3-(3,4-Dimethoxy-phenyl)-pyrrolo[2,3-b]pyridin-1-yl]-ethanone]: the concentration for half-maximal inhibition (IC50) in assay [1] was less than 10 µM; in assay [2], less than 10 µM; in assay [3] it was less than 10 µM; in assay [4] it was not above 10 µM.

As to `COc1ccc(-c2cn(C(=O)c3ccccc3OC)c3ncccc23)cc1OC` [Compound 68, [3-(3,4-Dimethoxy-phenyl)-pyrrolo[2,3-b]pyridin-1-yl]-(2-methoxyphenyl)-methanone], the half-maximal inhibitory concentration (IC50) in assay [1] was less than 10 µM; in assay [2], less than 10 µM; in assay [3] it was less than 10 µM; in assay [4], not above 10 µM.

For `COc1ccc(-c2cn(S(=O)(=O)c3ccc(-c4cnco4)cc3)c3ncccc23)cc1OC` [Compound 70, 3-(3,4-Dimethoxy-phenyl)-1-(4-oxazol-5-yl-benzenesulfonyl)-1H-pyrrolo[2,3-b]pyridine], the IC50 is less than 10 µM in assay [1], less than 10 µM in assay [2], less than 10 µM in assay [3] and not above 10 µM in assay [4].

As to `COc1ccc(-c2cn(S(=O)(=O)c3cccc(-c4cnco4)c3)c3ncccc23)cc1OC` [Compound 72, 3-(3,4-Dimethoxy-phenyl)-1-(3-oxazol-5-yl-benzenesulfonyl)-1H-pyrrolo[2,3-b]pyridine], the IC50 in assay [1] was less than 10 µM; in assay [2], less than 10 µM; in assay [3] it was less than 10 µM; in assay [4], not above 10 µM.

For the compound `COc1ccc(-c2cn(S(=O)(=O)c3ccc(-c4nnc(C)o4)cc3)c3ncccc23)cc1OC` [Compound 73, 3-(3,4-Dimethoxy-phenyl)-1-[4-(5-methyl-[1,3,4]oxadiazol-2-yl)-benzenesulfonyl]-1H-pyrrolo[2,3-b]pyridine], the IC50 in assay [1] is less than 10 µM; in assay [2], less than 10 µM; in assay [3] it was less than 10 µM; in assay [4], not above 10 µM.

For the compound `COc1ccc(-c2cn(Cc3ccccc3CS(=O)(=O)c3ccccc3)c3ncccc23)cc1OC` [Compound 74, 1-(2-Benzenesulfonylmethyl-benzyl)-3-(3,4-dimethoxy-phenyl)-1H-pyrrolo[2,3-b]pyridine], the concentration for half-maximal inhibition (IC50) in assay [1] is less than 10 µM; in assay [2], less than 10 µM; in assay [3] it was less than 10 µM; in assay [4] it was not above 10 µM.

On to `COc1ccc(-c2cn(Cc3ccccc3)c3ncccc23)cc1OC` [Compound 75, 1-Benzyl-3-(3,4-dimethoxy-phenyl)-1H-pyrrolo[2,3-b]pyridine], for which the IC50 was less than 10 µM in assay [1], less than 10 µM in assay [2], less than 10 µM in assay [3] and not above 10 µM in assay [4].

Take `COc1ccc(-c2cn(Cc3c(C)ccc4ccccc34)c3ncccc23)cc1OC` [Compound 76, 3-(3,4-Dimethoxy-phenyl)-1-(2-methyl-naphthalen-1-ylmethyl)-1H-pyrrolo[2,3-b]pyridine]: the IC50 in assay [1] is less than 10 µM; in assay [2] it was less than 10 µM; in assay [3], less than 10 µM; in assay [4] it was not above 10 µM.

As for `COc1ccc(-c2cn(Cc3ccc(C#N)cc3)c3ncccc23)cc1OC` [Compound 77, 4-[3-(3,4-Dimethoxy-phenyl)-pyrrolo[2,3-b]pyridin-1-ylmethyl]-benzonitrile], the IC50 in assay [1] was less than 10 µM; in assay [2], less than 10 µM; in assay [3] it was less than 10 µM; in assay [4] it was not above 10 µM.

Broadly, the IC50 is the concentration that gives 50% inhibition.
